For one test, the target named is Troponin, cardiac muscle (Homo sapiens, UniProt P19429+P45379+P63316). The test is described as follows: Fluorescence-based biochemical high throughput dose response assay for activators of the calcium sensitivity of cardiac Regulated Thin Filaments (RTF). [Related pubchem assays (depositor defined):AID493008, AID493018, AID504382, AID504383]. Type of test: protein-complex assay.

Another test deals with Vasopressin V1a receptor (Homo sapiens, UniProt P37288). As to the kind of experiment: Fluorescence-based cell-based high throughput dose response screening assay for agonists of the vasopressin 1 receptor (V1R). Type of test: functional.
Vasopressin V1a receptor, sequence (P37288 whole entry): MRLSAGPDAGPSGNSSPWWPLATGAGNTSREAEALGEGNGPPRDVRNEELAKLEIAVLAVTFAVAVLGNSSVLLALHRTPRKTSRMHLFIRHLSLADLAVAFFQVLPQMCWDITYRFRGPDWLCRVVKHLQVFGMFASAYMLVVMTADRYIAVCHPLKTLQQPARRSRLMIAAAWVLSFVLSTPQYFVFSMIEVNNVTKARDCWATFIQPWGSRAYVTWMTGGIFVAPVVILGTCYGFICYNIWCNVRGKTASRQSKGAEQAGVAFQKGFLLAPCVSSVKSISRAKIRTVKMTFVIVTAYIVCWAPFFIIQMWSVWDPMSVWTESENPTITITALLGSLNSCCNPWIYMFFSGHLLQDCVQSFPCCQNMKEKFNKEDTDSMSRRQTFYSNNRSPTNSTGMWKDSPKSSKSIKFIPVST
The target in the next test is Oxytocin receptor (Homo sapiens, UniProt P30559). As to the kind of experiment: Counterscreen for vasopressin 1 receptor (V1R) agonists: Fluorescence-based cell-based high throughput dose response assay for agonists of the Oxytocin Receptor (OXTR). [Related pubchem assays: 2435 (Primary screen (OXTR agonists in singlicate)), 434964 (Confirmation screen (V1R agonists in triplicate)), 434969 (Counterscreen (OXTR agonists in …. Type of test: functional. For orientation: The purpose of a counterscreen is to sort out artefacts and off-target activity.
Oxytocin receptor, sequence (P30559 whole entry): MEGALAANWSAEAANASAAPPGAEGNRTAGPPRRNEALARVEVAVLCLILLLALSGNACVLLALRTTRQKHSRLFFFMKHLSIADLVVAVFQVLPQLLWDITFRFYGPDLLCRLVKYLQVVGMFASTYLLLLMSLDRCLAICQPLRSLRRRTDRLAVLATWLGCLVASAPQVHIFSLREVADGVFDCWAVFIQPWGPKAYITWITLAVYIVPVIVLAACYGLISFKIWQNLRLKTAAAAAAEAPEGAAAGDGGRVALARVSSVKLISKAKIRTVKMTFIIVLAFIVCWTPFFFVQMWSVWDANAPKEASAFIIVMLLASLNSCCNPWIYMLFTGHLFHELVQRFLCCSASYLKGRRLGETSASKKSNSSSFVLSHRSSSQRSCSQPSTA

For test [1], the system named is Vero. As to the kind of experiment: host cell cytotoxicity of antiviral hits, dose response, cytotoxicity control for West Nile virus antiviral project, secondary assay (AID 1650). Type of test: functional. The conditions noted are these: Chlorocebus sabaeus.
Test [2] concerns the target T1, Type-1 angiotensin II receptor (Homo sapiens, UniProt P30556).
T1 sequence (P30556 whole entry): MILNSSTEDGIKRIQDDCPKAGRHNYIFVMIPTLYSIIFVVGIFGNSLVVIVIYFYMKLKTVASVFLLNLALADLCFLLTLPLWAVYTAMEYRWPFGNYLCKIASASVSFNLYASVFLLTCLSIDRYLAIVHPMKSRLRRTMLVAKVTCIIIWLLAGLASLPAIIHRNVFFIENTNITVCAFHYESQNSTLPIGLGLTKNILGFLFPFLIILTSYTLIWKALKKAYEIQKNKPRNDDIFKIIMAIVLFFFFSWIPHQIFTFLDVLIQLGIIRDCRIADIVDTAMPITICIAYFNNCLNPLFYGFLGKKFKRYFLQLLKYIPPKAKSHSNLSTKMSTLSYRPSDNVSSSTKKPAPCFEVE
As to the kind of experiment: AT1 receptor agonists, dose response, selectivity assay for APJ receptor agonist project, cell-based, uHTS hits (AID 488865).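 Note: beta-arrestin recruitment to AT1 measured by enzyme fragment complementation luminescence.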 Type of test: functional.

In the next test the target is Nonstructural protein 1 (Influenza A virus, UniProt Q194T2). Type of test: functional, Influenza A virus (A/California/07/2009(H1N1)).
Nonstructural protein 1, sequence (Q194T2 whole entry): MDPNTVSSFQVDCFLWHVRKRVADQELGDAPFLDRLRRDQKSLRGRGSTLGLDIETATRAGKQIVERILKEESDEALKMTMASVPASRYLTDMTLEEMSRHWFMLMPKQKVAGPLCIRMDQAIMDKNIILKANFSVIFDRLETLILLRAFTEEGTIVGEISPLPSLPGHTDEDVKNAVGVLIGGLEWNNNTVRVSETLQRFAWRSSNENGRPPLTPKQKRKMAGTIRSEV
Test [3] in a line: yeast RAM network inhibitors, dose response, S. cerevisiae (AID 1307). Type of test: functional.
The target in test [4] is T2, Histone-lysine N-methyltransferase NSD2 (Homo sapiens, UniProt O96028).
T2 sequence (O96028 whole entry): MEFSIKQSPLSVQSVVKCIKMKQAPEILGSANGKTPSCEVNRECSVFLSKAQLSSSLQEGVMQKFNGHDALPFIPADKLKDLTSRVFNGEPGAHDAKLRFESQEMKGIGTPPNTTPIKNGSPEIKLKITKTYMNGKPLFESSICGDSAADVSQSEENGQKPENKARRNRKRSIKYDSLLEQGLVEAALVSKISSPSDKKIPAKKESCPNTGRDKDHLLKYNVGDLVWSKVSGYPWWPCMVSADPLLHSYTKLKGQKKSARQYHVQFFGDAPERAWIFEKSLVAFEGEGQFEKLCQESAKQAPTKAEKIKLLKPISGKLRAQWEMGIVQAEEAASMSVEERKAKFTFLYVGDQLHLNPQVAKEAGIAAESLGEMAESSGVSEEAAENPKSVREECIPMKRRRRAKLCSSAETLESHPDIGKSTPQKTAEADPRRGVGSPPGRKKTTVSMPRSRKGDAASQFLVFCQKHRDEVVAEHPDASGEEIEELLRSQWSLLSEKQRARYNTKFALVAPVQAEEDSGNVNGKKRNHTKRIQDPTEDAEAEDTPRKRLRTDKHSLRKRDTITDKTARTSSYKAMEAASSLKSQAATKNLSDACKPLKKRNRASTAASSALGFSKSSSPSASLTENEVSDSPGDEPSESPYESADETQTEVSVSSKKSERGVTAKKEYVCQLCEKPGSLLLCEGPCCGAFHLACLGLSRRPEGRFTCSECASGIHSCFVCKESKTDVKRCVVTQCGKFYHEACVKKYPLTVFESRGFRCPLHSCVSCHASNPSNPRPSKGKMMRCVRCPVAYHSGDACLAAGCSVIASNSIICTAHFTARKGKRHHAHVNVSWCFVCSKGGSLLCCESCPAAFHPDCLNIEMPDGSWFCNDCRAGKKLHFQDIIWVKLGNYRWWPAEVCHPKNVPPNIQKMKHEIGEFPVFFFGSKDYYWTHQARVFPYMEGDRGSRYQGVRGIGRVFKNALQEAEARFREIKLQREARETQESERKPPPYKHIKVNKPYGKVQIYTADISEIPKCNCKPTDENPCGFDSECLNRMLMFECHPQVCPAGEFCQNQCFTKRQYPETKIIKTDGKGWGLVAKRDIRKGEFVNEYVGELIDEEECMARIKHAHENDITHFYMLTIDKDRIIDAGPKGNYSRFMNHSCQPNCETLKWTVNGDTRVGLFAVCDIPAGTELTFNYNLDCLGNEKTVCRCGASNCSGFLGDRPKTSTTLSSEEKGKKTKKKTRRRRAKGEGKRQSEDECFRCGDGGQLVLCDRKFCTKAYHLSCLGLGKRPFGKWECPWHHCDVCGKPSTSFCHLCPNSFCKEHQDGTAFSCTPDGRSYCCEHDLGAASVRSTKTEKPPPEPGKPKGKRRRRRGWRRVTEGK
Type of test: biochemical.

The test system of test [5] is Vero. As to the kind of experiment: Vero cell cytotoxicity, cytotoxicity control for flavivirus capping enzyme inhibitors (AID 588742). Type of test: functional. The conditions noted are these: Chlorocebus sabaeus.
Test [6] addresses Eukaryotic translation initiation factor 4E (Mus musculus, UniProt P63073). As to the kind of experiment: eIF4E–eIF4G protein interaction inhibitors, dose response, biochemical, TR-FRET (AID 855).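 Note: potency for disrupting eIF4E binding to eIF4GI seen as loss of FRET.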 Type of test: functional. For orientation: Time-resolved FRET reads energy transfer from a long-lived donor to a nearby acceptor.
Another test deals with Genome polyprotein (dengue virus type 2, UniProt P29990). As to the kind of experiment: Dengue-2 NS5 methyltransferase inhibitors, primary screen, biochemical, confirmation dose response (AID 588689). Type of test: functional.
Genome polyprotein, sequence (P29990 2492-3391 limits assumed): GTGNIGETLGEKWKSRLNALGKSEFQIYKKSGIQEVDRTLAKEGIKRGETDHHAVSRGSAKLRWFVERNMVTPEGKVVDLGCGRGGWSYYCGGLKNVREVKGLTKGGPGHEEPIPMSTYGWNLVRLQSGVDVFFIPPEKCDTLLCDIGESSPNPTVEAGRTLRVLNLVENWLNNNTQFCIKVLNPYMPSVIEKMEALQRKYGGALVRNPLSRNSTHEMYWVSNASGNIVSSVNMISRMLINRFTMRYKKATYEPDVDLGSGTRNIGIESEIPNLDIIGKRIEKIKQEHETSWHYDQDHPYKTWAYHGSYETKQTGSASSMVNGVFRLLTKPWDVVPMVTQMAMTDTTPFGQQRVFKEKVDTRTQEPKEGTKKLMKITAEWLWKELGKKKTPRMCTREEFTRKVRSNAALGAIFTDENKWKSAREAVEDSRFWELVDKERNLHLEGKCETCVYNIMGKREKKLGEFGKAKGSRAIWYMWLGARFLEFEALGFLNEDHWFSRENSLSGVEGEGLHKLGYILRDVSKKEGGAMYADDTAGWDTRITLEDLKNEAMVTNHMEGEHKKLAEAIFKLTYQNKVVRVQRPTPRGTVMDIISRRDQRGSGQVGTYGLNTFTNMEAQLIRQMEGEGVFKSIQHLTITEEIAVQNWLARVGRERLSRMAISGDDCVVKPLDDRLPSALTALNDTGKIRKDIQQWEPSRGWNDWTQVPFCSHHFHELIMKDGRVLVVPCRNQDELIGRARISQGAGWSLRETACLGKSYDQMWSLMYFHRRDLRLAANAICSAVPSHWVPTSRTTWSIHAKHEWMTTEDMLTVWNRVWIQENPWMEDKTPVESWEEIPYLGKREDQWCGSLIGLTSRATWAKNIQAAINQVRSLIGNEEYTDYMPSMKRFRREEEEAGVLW
A further test addresses NADPH oxidase 1 (Homo sapiens, UniProt Q9Y5S8). Type of test: functional, cell-based.
The target of test [7] is T3, Heat shock factor protein 1 (Mus musculus, UniProt P38532).
T3 sequence (P38532 whole entry): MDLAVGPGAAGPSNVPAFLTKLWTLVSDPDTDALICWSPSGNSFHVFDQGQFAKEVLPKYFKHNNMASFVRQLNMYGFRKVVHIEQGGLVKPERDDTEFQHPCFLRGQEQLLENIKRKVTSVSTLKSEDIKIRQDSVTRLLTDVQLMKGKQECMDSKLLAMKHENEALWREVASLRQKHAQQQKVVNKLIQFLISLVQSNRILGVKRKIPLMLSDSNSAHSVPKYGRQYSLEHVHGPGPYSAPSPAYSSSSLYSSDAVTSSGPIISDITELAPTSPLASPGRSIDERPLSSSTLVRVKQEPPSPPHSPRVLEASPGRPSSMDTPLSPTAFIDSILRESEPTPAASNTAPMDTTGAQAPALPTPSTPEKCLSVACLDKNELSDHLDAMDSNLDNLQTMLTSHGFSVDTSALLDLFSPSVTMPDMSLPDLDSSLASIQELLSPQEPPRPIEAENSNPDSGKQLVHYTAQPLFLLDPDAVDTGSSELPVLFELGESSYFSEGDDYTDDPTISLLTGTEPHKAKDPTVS
The test is described as follows: inhibition of MG132-induced HSE-luciferase signal, confirmation, cell-based, NIH3T3, luminescence, dose retest (AID 2382).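 Note: NIH3T3 fibroblasts with HSF1-driven luciferase reporter stressed by proteasome inhibitor MG132; luminescence from HSF1-driven luciferase expression after 8 hours of MG132 stress.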 Type of test: functional.

The target of test [8] is T4, Mannose-6-phosphate isomerase (Homo sapiens, UniProt P34949).
T4 sequence (P34949 whole entry): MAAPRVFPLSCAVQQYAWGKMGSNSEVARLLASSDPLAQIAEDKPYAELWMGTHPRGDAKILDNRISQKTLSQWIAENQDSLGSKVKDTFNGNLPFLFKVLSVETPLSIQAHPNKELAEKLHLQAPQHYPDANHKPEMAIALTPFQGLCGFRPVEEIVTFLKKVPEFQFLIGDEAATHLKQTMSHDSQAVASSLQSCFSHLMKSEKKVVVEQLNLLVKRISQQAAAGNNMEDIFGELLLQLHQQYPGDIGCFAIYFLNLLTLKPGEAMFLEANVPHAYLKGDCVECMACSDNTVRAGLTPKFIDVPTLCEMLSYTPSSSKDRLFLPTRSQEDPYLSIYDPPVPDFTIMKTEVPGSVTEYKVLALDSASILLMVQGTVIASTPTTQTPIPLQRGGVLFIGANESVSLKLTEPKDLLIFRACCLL
The test is described as follows: inhibitors of human PMI, primary screen, biochemical, fluorescence intensity, coupled assay (AID 1209).

For test [9], the target named is Lytic switch protein BZLF1 (Epstein-Barr virus (strain B95-8) (HHV-4) (Human herpesvirus 4), UniProt P03206). The test is described as follows: EBV ZTA inhibitors, dose response, counter-screen for EBNA-1 inhibitor project, biochemical, fluorescence polarization, Epstein-Barr virus, 1536-well (AID 2377).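 Note: fluorescence polarization of Cy5-labelled ZRE DNA probe bound by purified Zta.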 More on the design: species or system human gammaherpesvirus 4.
Lytic switch protein BZLF1, sequence (P03206 whole entry): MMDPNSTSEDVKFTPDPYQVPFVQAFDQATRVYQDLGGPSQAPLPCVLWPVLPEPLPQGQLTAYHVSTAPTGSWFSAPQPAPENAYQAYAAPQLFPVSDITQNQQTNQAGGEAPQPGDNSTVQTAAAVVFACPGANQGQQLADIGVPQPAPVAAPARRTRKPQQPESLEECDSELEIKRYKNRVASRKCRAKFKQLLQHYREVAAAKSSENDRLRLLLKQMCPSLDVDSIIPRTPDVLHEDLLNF

Test [10] addresses Epstein-Barr nuclear antigen 1 (Epstein-Barr virus (strain B95-8) (HHV-4) (Human herpesvirus 4), UniProt P03211). As to the kind of experiment: EBNA-1 inhibitors, dose response, biochemical, fluorescence polarization, 1536-well (AID 2381).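 Note: fluorescence polarization of a Cy5 DNA probe bound by EBNA-1 protein.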 More on the design: species or system human gammaherpesvirus 4.
The next test has as its target Procathepsin L (Homo sapiens, UniProt P07711). The test is described as follows: cathepsin L inhibitors, dose response, counter-screen for M1/M17 aminopeptidase inhibitor project, biochemical, QFRET, 1536-well (AID 2214).
The target of the next test is T5, Leucine aminopeptidase (Plasmodium falciparum 3D7, UniProt Q8IL11).
T5 sequence (Q8IL11 whole entry): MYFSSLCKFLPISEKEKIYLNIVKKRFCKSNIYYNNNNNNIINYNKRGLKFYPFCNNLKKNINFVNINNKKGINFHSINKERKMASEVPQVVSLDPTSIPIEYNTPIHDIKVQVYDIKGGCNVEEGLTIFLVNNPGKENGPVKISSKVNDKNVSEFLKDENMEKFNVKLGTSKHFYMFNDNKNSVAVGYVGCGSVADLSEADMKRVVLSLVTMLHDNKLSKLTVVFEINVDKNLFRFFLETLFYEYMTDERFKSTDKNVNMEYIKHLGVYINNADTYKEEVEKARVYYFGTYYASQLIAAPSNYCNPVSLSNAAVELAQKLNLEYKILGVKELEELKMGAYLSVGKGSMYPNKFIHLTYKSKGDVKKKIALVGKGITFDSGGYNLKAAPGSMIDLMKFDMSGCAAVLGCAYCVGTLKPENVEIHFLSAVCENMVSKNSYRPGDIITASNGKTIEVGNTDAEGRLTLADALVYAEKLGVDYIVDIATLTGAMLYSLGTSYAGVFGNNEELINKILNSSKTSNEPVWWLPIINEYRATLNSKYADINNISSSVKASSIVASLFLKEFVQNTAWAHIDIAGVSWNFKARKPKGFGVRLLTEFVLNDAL
As to the kind of experiment: P. falciparum M17LAP inhibitors, primary screen, biochemical, fluorogenic H-Leu-NHMec substrate, 1536-well (AID 1619). Type of test: functional.

In test [11] the target is T6, Probable nicotinate-nucleotide adenylyltransferase (Staphylococcus aureus (strain N315), UniProt P65502). Type of test: functional, Staphylococcus aureus subsp. aureus N315.
T6 sequence (P65502 whole entry): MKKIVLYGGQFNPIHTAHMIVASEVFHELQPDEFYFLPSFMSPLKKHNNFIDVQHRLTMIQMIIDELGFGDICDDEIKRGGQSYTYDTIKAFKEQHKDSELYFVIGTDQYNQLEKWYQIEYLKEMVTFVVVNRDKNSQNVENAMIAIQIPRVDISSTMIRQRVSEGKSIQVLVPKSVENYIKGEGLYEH
Test [12] deals with T6, Probable nicotinate-nucleotide adenylyltransferase. Type of test: functional, Staphylococcus aureus subsp. aureus N315. The conditions noted are these: read-out: IC50_Mean.
The next test deals with Aspartyl aminopeptidase (Plasmodium falciparum 3D7, UniProt Q8I2J3). The test is described as follows: Counterscreen for inhibitors of M1 and M17 aminopeptidases: QFRET-based biochemical high throughput dose response assay for inhibitors of the Plasmodium falciparum M18 Aspartyl Aminopeptidase (PFM18AAP). [Related PubChem assays: 1619 (Screening assay (M17LAP inhibitors).), 1445 (Screening assay (M1AAP inhibitors).)].
Aspartyl aminopeptidase, sequence (Q8I2J3 whole entry): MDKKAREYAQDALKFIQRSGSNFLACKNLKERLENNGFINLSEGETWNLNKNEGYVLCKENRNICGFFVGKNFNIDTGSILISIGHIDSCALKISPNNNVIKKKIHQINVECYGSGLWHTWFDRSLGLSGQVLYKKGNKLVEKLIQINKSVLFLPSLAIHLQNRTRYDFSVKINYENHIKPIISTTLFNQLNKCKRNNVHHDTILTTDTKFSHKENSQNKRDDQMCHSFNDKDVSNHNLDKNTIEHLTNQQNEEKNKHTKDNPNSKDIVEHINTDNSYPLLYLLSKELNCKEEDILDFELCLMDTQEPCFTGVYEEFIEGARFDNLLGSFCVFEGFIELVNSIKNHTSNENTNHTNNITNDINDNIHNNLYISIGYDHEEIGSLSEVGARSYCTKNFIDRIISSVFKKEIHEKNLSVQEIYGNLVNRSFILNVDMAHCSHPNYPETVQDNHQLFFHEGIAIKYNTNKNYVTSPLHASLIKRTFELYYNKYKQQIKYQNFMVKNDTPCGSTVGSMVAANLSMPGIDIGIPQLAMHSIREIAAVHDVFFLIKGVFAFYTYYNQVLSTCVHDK

The structures appear in SMILES notation. Active and inactive are the calls of the source. Bounds are passed on as bounds.
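Throughout, for IC50 Mean: confirmatory dose-response retesting of NadD inhibitor hits first found in an ultra-high-throughput screen.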

NADPH oxidase 1, sequence (Q9Y5S8 whole entry): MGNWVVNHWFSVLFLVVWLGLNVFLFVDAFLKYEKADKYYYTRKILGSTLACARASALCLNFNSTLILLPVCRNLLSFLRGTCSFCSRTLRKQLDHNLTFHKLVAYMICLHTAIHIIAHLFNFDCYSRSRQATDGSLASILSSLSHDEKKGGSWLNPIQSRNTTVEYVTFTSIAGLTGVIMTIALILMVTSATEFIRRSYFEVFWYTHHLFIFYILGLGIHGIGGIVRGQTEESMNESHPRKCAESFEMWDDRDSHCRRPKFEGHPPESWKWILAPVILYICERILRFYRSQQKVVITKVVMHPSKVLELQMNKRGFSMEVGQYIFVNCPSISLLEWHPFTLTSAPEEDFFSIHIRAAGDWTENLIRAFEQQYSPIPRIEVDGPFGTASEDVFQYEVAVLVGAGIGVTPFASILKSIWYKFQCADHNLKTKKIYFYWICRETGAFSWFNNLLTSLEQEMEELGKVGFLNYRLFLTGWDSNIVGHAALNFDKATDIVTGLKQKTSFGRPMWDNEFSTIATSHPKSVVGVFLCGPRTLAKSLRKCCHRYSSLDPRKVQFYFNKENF
Epstein-Barr nuclear antigen 1, sequence (P03211 whole entry): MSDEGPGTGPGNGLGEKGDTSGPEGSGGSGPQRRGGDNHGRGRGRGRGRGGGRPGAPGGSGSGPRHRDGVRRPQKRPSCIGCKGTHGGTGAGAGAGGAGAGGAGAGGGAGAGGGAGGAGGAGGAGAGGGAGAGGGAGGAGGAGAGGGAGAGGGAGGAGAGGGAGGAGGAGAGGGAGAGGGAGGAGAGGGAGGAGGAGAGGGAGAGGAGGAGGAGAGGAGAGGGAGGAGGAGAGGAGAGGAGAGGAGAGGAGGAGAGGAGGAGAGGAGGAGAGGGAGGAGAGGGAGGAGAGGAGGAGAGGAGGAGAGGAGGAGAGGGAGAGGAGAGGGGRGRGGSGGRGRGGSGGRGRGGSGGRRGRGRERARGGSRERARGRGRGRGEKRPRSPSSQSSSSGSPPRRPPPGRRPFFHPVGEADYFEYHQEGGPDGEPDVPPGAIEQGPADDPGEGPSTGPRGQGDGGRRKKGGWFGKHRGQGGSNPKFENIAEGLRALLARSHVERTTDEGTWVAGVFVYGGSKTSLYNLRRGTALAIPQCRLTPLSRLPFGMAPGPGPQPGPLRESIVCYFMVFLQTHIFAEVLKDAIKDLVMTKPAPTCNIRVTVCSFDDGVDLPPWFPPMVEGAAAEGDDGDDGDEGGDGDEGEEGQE
Eukaryotic translation initiation factor 4E, sequence (P63073 whole entry): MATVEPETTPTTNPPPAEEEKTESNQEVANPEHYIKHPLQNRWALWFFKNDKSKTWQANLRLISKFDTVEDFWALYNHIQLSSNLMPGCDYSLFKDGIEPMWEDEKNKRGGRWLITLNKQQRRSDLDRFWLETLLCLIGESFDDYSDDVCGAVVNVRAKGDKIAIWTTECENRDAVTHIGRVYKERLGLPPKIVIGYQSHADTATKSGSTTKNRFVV
Procathepsin L, sequence (P07711 whole entry): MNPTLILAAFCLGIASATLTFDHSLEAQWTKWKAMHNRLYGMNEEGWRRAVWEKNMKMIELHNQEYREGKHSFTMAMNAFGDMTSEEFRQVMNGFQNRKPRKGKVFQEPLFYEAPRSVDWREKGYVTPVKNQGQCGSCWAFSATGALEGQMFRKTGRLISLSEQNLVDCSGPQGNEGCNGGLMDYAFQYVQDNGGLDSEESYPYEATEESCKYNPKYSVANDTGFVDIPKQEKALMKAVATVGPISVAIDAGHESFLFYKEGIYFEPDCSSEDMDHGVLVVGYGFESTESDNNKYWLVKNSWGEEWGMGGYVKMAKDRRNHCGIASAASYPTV

Turning to `CCSC1=N/C(=C\C=C2/Oc3ccccc3N2CC)C(=O)S1`, the EC50 at Troponin, cardiac muscle was 4.53 µM (active); at Vasopressin V1a receptor, > 29.9 µM (not active); on Oxytocin receptor, > 29.9 µM (not active).

Regarding `CCOC(=O)N1CCN(S(=O)(=O)c2ccc(C(=O)N(CCCN(C)C)c3nc4ccc(Cl)cc4s3)cc2)CC1`, the cytotoxic concentration (CC50) with Vero [1] was 10.1 µM (active). Also, the EC50 in test [2] is > 100 µM (inactive).

Take `Cc1cc(C)c(Nc2cc(S(=O)(=O)O)c(N)c3c2C(=O)c2ccccc2C3=O)c(C)c1` [ACID BLUE 129]: the IC50 at Nonstructural protein 1 was 3.96 µM (active); in test [3], 139 µM (active); in test [6] it was 26.1 µM (inactive); on Genome polyprotein it was 21.5 µM (active). The AC50 in test [4] was 3.75 µM (active). Further, the cytotoxic concentration (CC50) in the test on Vero [5] is > 40 µM (active).

Turning to `C(=N\Nc1ccccc1)/c1ccccc1`, at NADPH oxidase 1, the IC50 is 13 µM (active).

For `Cc1nn(-c2ccccc2)c(S)c1/C=N/c1cccc([N+](=O)[O-])c1`, the EC50 in test [7] is given as > 195 µM (not active). Moreover, the IC50 in test [8] is 19.1 µM (active).

As to `CN1CCN(c2ccc(-c3cccc(NC(=O)COc4ccc(Cl)cc4Cl)c3)nn2)CC1`, the IC50 in test [9] was > 111 µM (not active); in [10], > 148 µM (not active).

For the compound `CCn1c2ccccc2c2cc(NC(=O)CSc3nccc(O)n3)ccc21`, the IC50 on Procathepsin L is > 59.6 µM (not active); at Leucine aminopeptidase, 1.41 µM (active); in test [11], 15.3 µM (active); in [12], 42.4 µM (active); against Aspartyl aminopeptidase, > 73.5 µM (not active).

Usually EC50 stands for the concentration that produces a half-maximal response. The term CC50 denotes the concentration giving 50% cytotoxicity. As a reminder, the AC50 is the midpoint of the concentration-response curve, whichever way the signal moves.

The values are drawn from ChEMBL document CHEMBL1201862, “PubChem BioAssay data set” (2004).
